For 23 compounds, EC50 results are on record in patent US10377717B2, “Farnesoid X receptor agonists and uses thereof” (Metacrine, Inc., priority 2015, dated 2019).

The term EC50 denotes the concentration giving half of the maximal effect. Low values mean higher potency in that assay, high ones lower potency in that assay.

The target in the assay is hFXR (Homo sapiens (Human), UniProt Q96RI1). As to the kind of experiment: In Vitro FXR Assay (TK), luciferase reporter in transfected CV-1 cells. The format is cell-based. The following applies: TK-ECRE-luc reporter, hFXR/hRXR, 18 hrs, maximum efficacy <25% of Fexaramine control classified as '+'. Summed up: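 Luciferase read-out after 18 h compound exposure of CV-1 cells carrying transfected hFXR plus hRXR expression plasmids, TK-ECRE-luc reporter and pCMX-YFP. Cells cultured in charcoal-stripped FBS before transfection; compounds serially diluted in DMSO.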
hFXR, sequence (Q96RI1 whole entry): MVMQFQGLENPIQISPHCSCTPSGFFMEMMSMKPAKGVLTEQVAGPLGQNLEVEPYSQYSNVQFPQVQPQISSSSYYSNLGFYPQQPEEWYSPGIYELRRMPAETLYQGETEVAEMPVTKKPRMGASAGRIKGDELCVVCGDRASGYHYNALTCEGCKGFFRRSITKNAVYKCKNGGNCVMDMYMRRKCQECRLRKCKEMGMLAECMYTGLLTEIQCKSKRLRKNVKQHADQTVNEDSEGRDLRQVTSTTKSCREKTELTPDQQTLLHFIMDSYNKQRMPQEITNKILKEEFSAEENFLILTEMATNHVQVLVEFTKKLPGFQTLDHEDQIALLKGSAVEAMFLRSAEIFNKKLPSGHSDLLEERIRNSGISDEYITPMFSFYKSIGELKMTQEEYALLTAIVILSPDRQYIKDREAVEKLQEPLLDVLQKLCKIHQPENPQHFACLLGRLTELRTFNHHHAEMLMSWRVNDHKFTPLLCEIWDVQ
hFXR, sequence (P19793 whole entry partner): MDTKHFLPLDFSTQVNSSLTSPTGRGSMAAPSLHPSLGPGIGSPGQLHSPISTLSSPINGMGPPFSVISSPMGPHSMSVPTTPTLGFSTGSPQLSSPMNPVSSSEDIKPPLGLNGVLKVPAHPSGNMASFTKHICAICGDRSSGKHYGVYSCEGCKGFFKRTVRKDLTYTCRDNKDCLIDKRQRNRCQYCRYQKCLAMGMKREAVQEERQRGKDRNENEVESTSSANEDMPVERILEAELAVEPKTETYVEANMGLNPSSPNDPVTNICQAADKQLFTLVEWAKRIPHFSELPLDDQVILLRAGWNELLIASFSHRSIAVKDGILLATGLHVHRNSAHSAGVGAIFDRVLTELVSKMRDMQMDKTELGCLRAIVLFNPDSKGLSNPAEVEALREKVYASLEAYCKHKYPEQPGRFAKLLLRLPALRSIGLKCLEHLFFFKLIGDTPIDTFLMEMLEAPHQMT
For orientation: In a reporter assay the amount or activity of a reporter protein is the signal.
Take `COC(=O)c1ccc2c(N(Cc3ccc(-c4ccc(OC)c(C)c4)cc3)C(=O)Cc3ccccc3)nccc2c1` [Compound 75, Methyl 1-(N-((4′-methoxy-3′-methyl-[1,1′-biphenyl]-4-yl)methyl)-2-phenylacetamido)isoquinoline-6-carboxylate]: the EC50 is ≥ 10000 nM.

For the compound `COC(=O)c1cc(N(Cc2ccc(-c3ccc(N(C)C)cc3)cc2)C(=O)C2CCCCC2)c2ccccc2c1` [Compound 16, Methyl 4-(N-((4′-(dimethylamino)-[1,1′-biphenyl]-4-yl)methyl)cyclohexanecarboxamido)-2-naphthoate], the EC50 is ≥ 10000 nM.

In the case of `COC(=O)c1ccc2c(N(Cc3ccc(-c4ccc(OC)c(C)c4)cc3)C(=O)c3ccccc3)nccc2c1` [Compound 73, Methyl 1-(N-((4′-methoxy-3′-methyl-[1,1′-biphenyl]-4-yl)methyl)benzamido)isoquinoline-6-carboxylate], the concentration giving a half-maximal response (EC50) is ≤ 1000 nM.

As to `CCOC(=O)c1cnc2c(N(Cc3ccc(-c4ccc(N(C)C)cc4)cc3)C(=O)C3CCCCC3)cccc2c1` [Compound 14, Ethyl 8-(N-((4′-(dimethylamino)-[1,1′-biphenyl]-4-yl)methyl)cyclohexanecarboxamido) quinoline-3-carboxylate], the concentration giving a half-maximal response (EC50) fell in the range of 1000 to 10000 nM.

As to `COC(=O)c1ccc2c(N(Cc3ccc(-c4ccc5c(c4)OC(F)(F)O5)cc3)C(=O)CC(C)(C)C)nccc2c1` [Compound 34, Methyl 1-(N-(4-(2,2-difluorobenzo[d][1,3]dioxol-5-yl)benzyl)-3,3-dimethylbutanamido)isoquinoline-6-carboxylate], the EC50 is ≤ 1000 nM.

With `COC(=O)c1ccc2c(N(Cc3ccc(-c4ccc(OC)c(C)c4)cc3)C(=O)CCc3ccccc3)nccc2c1` [Compound 77, Methyl 1-(N-((4′-methoxy-3′-methyl-[1,1′-biphenyl]-4-yl)methyl)-3-phenylpropanamido)isoquinoline-6-carboxylate], the EC50 was in the range of 1000 to 10000 nM.

Regarding `COC(=O)c1ccc2c(N(Cc3ccc(-c4ccc(OC)c(C)c4)cc3)C(=O)CCCO)nccc2c1` [Compound 85, Methyl 1-(4-hydroxy-N-((4′-methoxy-3′-methyl-[1,1′-biphenyl]-4-yl)methyl)butanamido) isoquinoline-6-carboxylate], the EC50 is ≥ 10000 nM.

Turning to `COC(=O)c1ccc2c(N(Cc3ccc(-c4ccc(F)c(OC)c4)cc3)C(=O)CC(C)(C)C)nccc2c1` [Compound 54, Methyl 1-(N-((4′-fluoro-3′-methoxy-[1,1′-biphenyl]-4-yl)methyl)-3,3-dimethylbutanamido)isoquinoline-6-carboxylate], the EC50 was 1000 to 10000 nM.

With `COC(=O)c1ccc2c(N(C[C@H]3CC[C@H](c4ccc(OC)c(C)c4)CC3)C(=O)[C@H]3CC[C@H](O)CC3)nccc2c1` [Compound 99, Methyl 1-(trans-4-hydroxy-N-((trans-4-(4-methoxy-3-methylphenyl)cyclohexyl)methyl)cyclohexanecarboxamido) isoquinoline-6-carboxylate], the 50% effective concentration (EC50) is ≤ 1000 nM.

Regarding `COC(=O)c1ccc2c(N(Cc3ccc(-c4ccc(C5CC5)cc4)cc3)C(=O)CC(C)(C)C)nccc2c1` [Compound 40, Methyl 1-(N-((4′-cyclopropyl-[1,1′-biphenyl]-4-yl)methyl)-3,3-dimethylbutanamido)isoquinoline-6-carboxylate], the EC50 is ≤ 1000 nM.

For `COC(=O)c1ccc2c(N(Cc3ccc(-c4ccc(OC)c(C)c4)cc3)C(=O)CC3COC3)nccc2c1` [Compound 83, Methyl 1-(N-((4′-methoxy-3′-methyl-[1,1′-biphenyl]-4-yl)methyl)-2-(oxetan-3-yl)acetamido)isoquinoline-6-carboxylate], the EC50 is 1000 to 10000 nM.

For the compound `COC(=O)c1ccc2c(N(Cc3ccc(-c4cnc(OC)c(F)c4)cc3)C(=O)CC(C)(C)C)nccc2c1` [Compound 35, Methyl 1-(N-(4-(5-fluoro-6-methoxypyridin-3-yl)benzyl)-3,3-dimethylbutanamido)isoquinoline-6-carboxylate], the EC50 was ≤ 1000 nM.

Take `COC(=O)c1ccc2c(N(C[C@H]3CC[C@H](c4ccc(OC)c(C)c4)CC3)C(=O)CC(C)(C)C)nccc2c1` [Compound 96, Methyl 1-(N-((trans-4-(4-methoxy-3-methylphenyl)cyclohexyl)methyl)-3,3-dimethylbutanamido)isoquinoline-6-carboxylate]: the EC50 was ≤ 1000 nM.

Regarding `CCOC(=O)c1ccc2c(N(Cc3ccc(-c4ccc(OC)c(C)c4)cc3)C(=O)C3CCCCC3)cccc2n1` [Compound 23, Ethyl 5-(N-((4′-methoxy-3′-methyl-[1,1′-biphenyl]-4-yl)methyl)cyclohexanecarboxamido) quinoline-2-carboxylate], the EC50 was 1000 to 10000 nM.

For the compound `COCCOc1ccc(-c2ccc(CN(C(=O)CC(C)(C)C)c3nccc4cc(C(=O)OC)ccc34)cc2)cc1` [Compound 59, Methyl 1-(N-((4′-(2-methoxyethoxy)-[1,1-biphenyl]-4-yl)methyl)-3,3-dimethylbutanamido)isoquinoline-6-carboxylate], the EC50 lay within 1000 to 10000 nM.

Consider `COC(=O)c1ccc2c(N(Cc3ccc(-c4ccc(OCCO)cc4)cc3)C(=O)CC(C)(C)C)nccc2c1` [Compound 60, Methyl 1-(N′-((4′-(2-hydroxyethoxy)-[1,1′-biphenyl]-4-yl)methyl)-3,3-dimethylbutanamido)isoquinoline-6-carboxylate], for which the EC50 was in the range of 1000 to 10000 nM.

Regarding `COC(=O)c1cc2c(N(Cc3ccc(-c4ccc(N(C)C)cc4)cc3)C(=O)C3CCCCC3)cccc2[nH]1` [Compound 11, Methyl 4-(N-((4′-(dimethylamino)-[1,1′-biphenyl]-4-yl)methyl)cyclohexanecarboxamido)-1H-indole-2-carboxylate], the EC50 was ≥ 10000 nM.

In the case of `COC(=O)/C=C/c1ccnc(N(C[C@H]2CC[C@H](c3ccc(OC)c(C)c3)CC2)C(=O)C2CCCCC2)c1` [Compound 18, (E)-Methyl 3-(2-(N-((trans-4-(4-methoxy-3-methylphenyl)cyclohexyl)methyl)cyclohexanecarboxamido)pyridin-4-yl)acrylate], the EC50 was ≤ 1000 nM.

`COC(=O)c1ccc2c(N(CC3CCN(c4ccc(OC)c(C)c4)CC3)C(=O)CC(C)(C)C)nccc2c1` [Compound 98, Methyl 1-(N-((1-(4-methoxy-3-methylphenyl)piperidin-4-yl)methyl)-3,3-dimethylbutanamido)isoquinoline-6-carboxylate] showed an EC50 of 1000 to 10000 nM.

For `COC(=O)c1ccc2c(N(Cc3ccc(-c4ccc(OC(F)(F)F)c(Cl)c4)cc3)C(=O)CC(C)(C)C)nccc2c1` [Compound 41, Methyl 1-(N-((3′-chloro-4′-(trifluoromethoxy)-[1,1′-biphenyl]-4-yl)methyl)-3,3-dimethylbutanamido)isoquinoline-6-carboxylate], the EC50 was ≤ 1000 nM.

For `COCc1ccc(-c2ccc(CN(C(=O)CC(C)(C)C)c3nccc4cc(C(=O)OC)ccc34)cc2)cc1` [Compound 58, Methyl 1-(N-((4′-(methoxymethyl)-[1,1′-biphenyl]-4-yl)methyl)-3,3-dimethylbutanamido)isoquinoline-6-carboxylate], the EC50 was ≤ 1000 nM.

`COC(=O)c1ccc2c(N(Cc3ccc(-c4ccc5c(c4)CCN5C(=O)OC(C)(C)C)cc3)C(=O)CC(C)(C)C)nccc2c1` [Compound 51, Methyl 1-(N-(4-(1-(tert-butoxycarbonyl)indolin-5-yl)benzyl)-3,3-dimethylbutanamido)isoquinoline-6-carboxylate]: the EC50 is ≥ 10000 nM.

`COC(=O)c1ccc2c(N(Cc3ccc(-c4ccc(C#N)c(C)c4)cc3)C(=O)CC(C)(C)C)nccc2c1` [Compound 42, Methyl 1-(N-((4′-cyano-3′-methyl-[1,1′-biphenyl]-4-yl)methyl)-3,3-dimethylbutanamido)isoquinoline-6-carboxylate]: the EC50 was ≤ 1000 nM.
